According to patent US20020032183A1, “Use of (di-substituted-phenyl)-pyrimidinyl-imidazole derivatives as JNK-inhibitors” (priority 2000, published 2002):
Where “and” joins values, the source holds several entries; their conditions need not be identical. Equal entries are not always repeated. Where two headings read alike, the source gives them in different places. Marks after values point to notes of the source that are not given here.

What was measured:
[1] = target: T1, JNK3α1 (Homo sapiens, UniProt P53779); test: Biochemical determination of inhibition of JNK3α1; conditions: truncated JNK3α1, 1 μM ATP, 0.5 μM GST-ATF2, 30° C., 30 min
T1 construct: Truncated JNK3α1 (amino acids 39-422) was expressed in E. coli; made in house; host or cells: E. coli
T1 sequence (P53779 39-422 isoform P53779-2): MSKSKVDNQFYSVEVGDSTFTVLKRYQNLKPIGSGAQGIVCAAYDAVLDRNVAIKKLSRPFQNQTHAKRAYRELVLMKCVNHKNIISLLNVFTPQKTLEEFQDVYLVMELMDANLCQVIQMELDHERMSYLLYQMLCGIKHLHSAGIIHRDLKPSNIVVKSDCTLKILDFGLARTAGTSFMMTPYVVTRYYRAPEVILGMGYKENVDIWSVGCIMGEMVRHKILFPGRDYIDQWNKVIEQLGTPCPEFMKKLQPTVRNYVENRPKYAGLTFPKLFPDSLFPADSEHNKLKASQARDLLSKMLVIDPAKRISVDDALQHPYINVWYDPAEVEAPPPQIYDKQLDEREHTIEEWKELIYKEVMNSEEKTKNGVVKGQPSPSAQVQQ
Description: Activation reactions were incubated at 30° C. for 2 h.
Enzyme inhibition studies were performed at 30° C. for 30 min with 0.5 μM GST-ATF2, 1 μM ATP, 1 nM activated JNK3α1 and compound ranging from 30 pM to 100 μM. Reactions were carried out in 100 μL volumes containing the final concentrations of the following: 25 mM HEPES (Sigma) pH 7.4; 10 mM MgCl2 (Sigma); 2 mM DTT (Sigma); 20 mM β-glycerophosphate (Sigma); 0.1 mM Na3VO4 (Sigma); 2 μCi [γ-^33P]ATP (2000 Ci/mmol; 1 Ci=37 GBq) (Amersham Pharmacia Biotech, Piscataway, N.J.). Reactions were stopped with 100 μL 100 mM EDTA/15 mM sodium pyrophosphate. Immobilon™-P 96-well plates (Millipore MAIPNOB™ 10, available from the Millipore Corp., Bedford, Mass.) were pretreated with 100 μL methanol, followed by 100 μL 15 mM sodium pyrophosphate. Fifty μL of the stopped reaction was spotted in triplicate on the Immobilon™-P 96-well plate. The samples were vacuum-filtered and washed three times each with 100 μL 75 mM H3PO4 to remove unincorporated [γ-^33P]ATP. After the third H3PO4 wash and a final filtration step to remove H3PO4, 50 μL of Microscint™-20 (Packard BioScience Ltd., Pangbourne, Berkshire, U.K.) was added to each well and samples were analyzed on a Packard Topcount™ liquid scintillation counter. IC50 values were determined by fitting the data to the equation for a four parameter logistic.

[2] = system: mesencephalic dopaminergic neurons; assay type: cell-based, rat; conditions: for TH-immunoreactive cell survival, Mean: 48 hours
Text: Effects of Jnk Inhibition on Dopaminergic Neuronal Survival, In Vitro Following Treatment with the Neurotoxin MPP^+.
This protocol produces a yield of dopaminergic neurons of around 0.5-1%; this is equivalent to roughly 1000-1500 dopaminergic cells in the well. 14 day gestation Sprague-Dawley rats were killed by stunning and exsanguination. Embryos were removed and decapitated, and the ventral mesencephalon dissected from the brain. The tissue was dissociated by trypsin (0.25% in Hank's BSS) digestion for 20 minutes. The trypsin was neutralized by addition of an excess of serum containing medium and the cells centrifuged at 1000 rpm for 10 minutes. The cell pellet was resuspended in DMEM/10% FCS, and a single cell suspension prepared by mechanical dissociation and passage through a 70 μm cell strainer. Trypan blue excluding cells were counted in a haemocytometer, and cells were plated into poly-D-lysine treated 8-well chamber slides at a density of 2×10^5 cells/well in Dulbecco's MEM supplemented with 10% FCS. Cultures were incubated for 24 hours at 37° C./5% CO2, then the medium was replaced with DMEM supplemented with SATO (final concentration; 4.3 mg/ml BSA, 0.77 μg/ml progesterone, 20 μg/ml putrescine, 0.49 μg/ml L-thyroxine, 0.048 μg/ml selenium and 0.42 μg/ml tri-iodo-thyronine).
Cultures were incubated for 5 days, then removed from the incubator and treated with compounds. Jnk inhibitors were added at concentrations ranging from 1 nM to 1 μM to 4 independent wells per concentration. 15 minutes following addition of Jnk inhibitors, MPP^+ was added directly to the wells to give a final concentration in the well of 10 μM. 4 wells were treated with MPP^+ 10 μM alone, and 4 left as untreated controls. zVAD-fmk 300 μM and Example 2 500 nM were used as positive controls. Once compounds and MPP^+ had been added, cultures were returned to the incubator at 37° C./5% CO2 for a further 48 hours prior to fixation and immunostaining.
To determine the numbers of surviving dopaminergic neurons, immunocytochemistry was carried out using a rabbit polyclonal antibody raised against TH. Non-specific binding sites were blocked using 10% normal goat serum in PBS, then primary antibody was added at 4° C. overnight. The next day, the cells were washed and treated with biotin conjugated goat anti-rabbit IgG for one hour, followed by peroxidase conjugated avidin biotin complex, both made up from the Vectastain® Elite ABC kit (Vector Laboratories, Burlingame, Calif.) according to the manufacturer's instructions. Staining was visualized using Vector™ SG (Vector Laboratories) insoluble peroxidase substrate according to the manufacturer's instructions. Following staining, the gaskets were removed from the chamber slides, and the slides mounted using aqueous mountant. Slides were blinded by another investigator before quantification of TH-immunoreactive cell survival. To determine TH-immunoreactive cell survival, cells were visualized using transmitted light on a Zeiss Axiovert inverted microscope using a 10X objective. Counts were made of all the TH-immunoreactive cells present in each well.
Data analysis was performed using a one way analysis of variance, followed by Dunnett's t-test. In each case the data refer to one representative experiment, with four independent replicates for each data point. […] Data shown are normalized to percentage of control response; all statistical analyses, however, were carried out on the cell counts.

[3] = system: mouse cerebellar granule neurons; test: Detection of neuronal apoptosis in mouse cerebellar granule neurons (low K+); assay type: cell-based; conditions: Neuron, low (5 mM) K+, serum-free, 8 h, FIG. 1, read-out: IC50 for inhibition of neuronal apoptosis
Description: 1. Dissect out cerebella from 7-9 day old CD-I mouse pups; remove meninges.
2. Mince and dissociate with trypsin. Halt trypsinization with Dnase I and egg white trypsin inhibitor.
3. Individual cells are obtained by trituration with a pasteur pipet.
4. Cells were resuspended in cell culture media [(cMEM) E-MEM), 25 mM glucose, 10% fetal bovine serum, 2 mM glutamine, 100 μg/mL gentamycin, 25 mM KCl] and seeded at 1.2×10^5 cells per well onto 96-well microplates pre-coated with poly-D-lysine.
5. Cultures were incubated at 37° C. in 6% CO2, and were used for experiments on day 5-7 in vitro.
1. Replace media in column 1 with serum-free cMEM. Replace medium in columns 2-12 with serum-free cMEM with low (5 mM) K+.
2. Add drug titrations (serial diluted in DMSO; final 1% DMSO). Incubate 8 h @ 37° C.
3. Spin plate @ 1500 rpm 10 min., remove media and add lysis buffer.
4. Incubate 30 min. room temp. shaking.
5. Spin plate @ 1500 rpm 10 min., transfer supernatant to fresh plate. Store @ 4° C.
6. Transfer 5 μL supernatant and 45 μL EIA reagent to EIA strip plate (positive control standards in column 12); incubate @ room temp 2 h.
7. Wash strip plate with PBS using the plate washer.
8. Add 150 μL K-blue substrate (ELISA Technologies, Inc., Gainsville, Fla.); stop using 50 μL Red Stop. Read plate @ 650 nm.

CCCn1c(C2CCN(C)CC2)nc(-c2ccc(Cl)c(Cl)c2)c1-c1ccnc(NC2CC2)n1 [Example 2, Cyclopropyl-{4-[5-(3,4-dichlorophenyl)-2-[(1-methyl)-piperidin]-4-yl-3-propyl-3H-imidazol-4-yl]-pyrimidin-2-yl}amine]
IC50 [1]: 7 nM
TH-immunoreactive cell survival, Mean ([2]; 1 nM + MPP+ 10 μM): 54.72 % of untreated control
TH-immunoreactive cell survival, Mean ([2]; 10 nM + MPP+ 10 μM): 60.77* % of untreated control
TH-immunoreactive cell survival, Mean ([2]; 100 nM + MPP+ 10 μM): 59.95* % of untreated control
TH-immunoreactive cell survival, Mean ([2]; 500 nM + MPP+ 10 μM): 72 % of untreated control and 72.41** % of untreated control
TH-immunoreactive cell survival, Mean ([2]; 1 μM + MPP+ 10 μM): 71.14** % of untreated control
TH-immunoreactive cell survival, Mean ([2]; 10 μM + MPP+ 10 μM): 32.08 % of untreated control
Non-specific toxicity ([2]; 10 μM treatment): Non-specific toxicity is observed
Concentrations giving significant increases in survival ([2]; MPP+ 10 μM, p<0.05): ≥ 10 nM
IC50 [3]: 100 nM
